This is an account of results in patent publication US20050187188A1, “Methods for the treatment of a traumatic central nervous system injury” (Emory University, priority 2000, published 2005).

Entries after “also recorded” stand apart in the source; their conditions may differ.

Test [1] relates to rats with bilateral frontal cortical contusions. Nature of the test: Morris water maze after MFC contusion, Example 2. It is filed as in vivo, rat. The note with it: 4 mg/kg. Here is the method:
Contusions to the MFC were carried out as described in Example 1.
(§1) These injections started at one hour post-injury with an intraperitoneal injection, and then were repeated at 6, 24, 48, 72, 96, and 120 hours post-injury with subcutaneous injections.
The Morris Water Maize (MWM) consisted of a circular tank with a diameter of 133 cm filled with opaque water (20±1° C.; non-toxic Artista™ nontoxic white tempura paint) to a depth of 64 cm (23 cm from top of tank). A platform (11 cm×11 cm) was submerged to a depth of 2 cm and placed approximately 28 cm from the wall of the pool in the center of the northeast quadrant. The position of the platform will remain constant throughout the experiment. MWM testing began seven days after surgery. Each animal was tested for a total of 10 days (2 trials per day) in two 5-day blocks. At the start of each trial, the experimenter placed a rat into the pool at one of four starting positions, and at the same time, activate the computer-interfaced camera tracking system. Each rat was allowed to swim in the pool until it reached the platform or until 90 seconds has passed. […] The performance of each rat was measured in terms of latency to platform, length of path to platform, and swim strategy, i.e., percent of total time spent in the outer versus inner annuli.

For test [2], the system named is rats with medial frontal cortical contusions. The test is described as follows: Cerebral edema (brain tissue water content) after medial frontal cortex contusion, Example 1. It is filed as in vivo, rat. The note with it: 4 mg/kg in cyclodextrin, i.p. 1 h and s.c. 6 h post-injury; 2, 24 and 72 hours; compared to vehicle.
Method: Contusions to the medical frontal cortex (MFC) using a pneumatic impactor device were generated. Animals were anesthetized by injection of Nembutal (50 mg/kg, i.p) and placed in a stereotaxic apparatus, with body core temperature being maintained with a homeothermic heating blanket system. Using aseptic techniques, a midline incision was made in the scalp, and the fascia retracted to expose the cranium. A centered, bilateral craniotomy was made 3 mm anterior to bregma using a 6 mm diameter trephan. After the removal of the bone, the tip of the impactor was moved to AP:3.0; ML:0.0, checked for adequate clearance, retracted to its elevated position and lowered 3.5 mm DV, so it penetrated the cortex 2 mm. The contusion was made at a velocity of 2.25 m/s with a brain contact time of 0.5 seconds. Following this procedure, the wound cavity was thoroughly cleaned and all bleeding stopped before the fascia and scalp, were sutured closed. In all experiments, the rats' group identity was coded with regard to surgery and treatment to prevent experimenter bias during behavioral testing and later histological examination.
These experimental solutions were then diluted 1:1 with sterile water for a final concentration of HBC of 22.5%.
Sprague-Dawley male rats, approximately 90 days of age at the time of surgery, were used. Rats were housed in individual cages, with a 12:12 light:dark cycle. Food and water were provided ad libitum throughout the experiment. Control rats received sham surgeries and the rest received medial frontal cortical contusions as described in the general methods. The sham-operated controls were given vehicle (cyclodextrin). […] Treatment began one hour after the contusion was produced. […] Subsequently, a second subcutaneous injection 6 hours post-injury for absorption that is more gradual. […]
At 2, 24, and 72 hours the rats were anesthetized, decapitated, and their brains removed quickly from the cranial cavity. […] The brain was placed on a pre-weighed dish and the total weight of the sample was measured. […]
Test [3] concerns sigma receptor. Particulars: cited from earlier work.
Test [4] deals with rats with bilateral frontal cortical contusions. The test is described as follows: Histological count of ChAT positive cells in nucleus basalis magnocellularis, motor behavior and cavity size, Example 2. Particulars: 4 mg/kg. It counts as in vivo, rat. As for the experimental part:
A single asterisk (*) indicates a significant difference from sham, a double asterisk (**) indicates a significant difference from both sham and lesion controls.
as §1
To determine the relationship between neural cell numbers and behavior, the number of neurons and glia were counted to determine the correlative relationship between the survival of these cells and behavioral performance (FIG. 3).

Test [5] has as its system cell death. Particulars: by attenuating release of inflammatory cytokines; cited from earlier work.
Test [6] has as its system GABA receptor. The note with it: independent of the benzodiazepines; cited from earlier work.

On to `CC(=O)[C@H]1CC[C@H]2[C@@H]3CC[C@H]4C[C@H](O)CC[C@]4(C)[C@H]3CC[C@]12C` [allopregnanolone, allopregnan-3α, or 3β-ol-20-one], for which the “Morris water maze performance vs injured rats given vehicle” value in test [1] (injections from 1 h to 120 h post-injury, last three blocks of testing, p<0.05) was “improved performance on an acquisition task; also recorded: significantly outperformed the injured rats given vehicle”. In test [1] (all days of testing), the “performance scores on the spatial learning task vs other groups” value is “better performance scores on the spatial learning task than the other groups”. Further, the cerebral edema entry in test [2] is “significantly reduced cerebral edema”. The “activity at the sigma receptor” value in test [3] is “antagonists at the sigma receptor”. Further, in test [4], the necrotic cavity size result was “no differences” and the spontaneous motor behavior entry is on record as “no differences”. Further, the “number of ChAT positive cells in the nucleus basalis magnocellularis” value in test [4] (vs untreated controls) is “more remaining viable neurons in this structure than untreated controls”. Also, the “cell death in vitro” value in test [5] is listed as “prevent cell death in vitro”. The “modulation of the GABA receptor” value in test [6] is recorded as “positive modulators of the GABA receptor”.
For `CC(=O)[C@H]1CC[C@H]2[C@@H]3CC[C@@H]4C[C@@H](O)CC[C@]4(C)[C@H]3CC[C@]12C` [epipregnanolone], in test [2], the cerebral edema result is “intermediate between injured controls and the allopregnanolone-treated injured rats”. Also, the “activity at the sigma receptor” value in test [3] is recorded as “antagonists at the sigma receptor”. Also, in test [6], the “modulation of the GABA receptor” value is “positive modulators of the GABA receptor”.
